# Values quoted from earlier work as cited in US10993951B2, “Fosfomycin formulation for parenteral administration” (priority 2016, dated 2021).
# Where a name gives a salt, the structure may show the parent alone.
# Settings: cited from earlier work
structure (smiles),measurement,value
"C[C@@H]1O[C@@H]1P(=O)(O)O [Fosfomycin disodium salt, fosfomycin disodium salt]",solubility in water,highly soluble
